# The source made the active and inactive calls. The rule behind the calls is not given here.
# Columns and labels:
# [1] = molecular target: T1, Protein cereblon/Signal transducer and activator of transcription 3 (Homo sapiens, UniProt P40763+Q96SW2); assay: PROTAC activity at his-SUMO-tagged STAT3 (127 to 688 residues)/CRBN in human HeLa cells assessed as induction of STAT3 degradation incubated for 24 hrs by TECAN SPARK microplate reader analysis; format: cell-based
# [2] = molecular target: T1, Protein cereblon/Signal transducer and activator of transcription 3; assay: PROTAC activity at his-SUMO-tagged STAT3 (127 to 688 residues)/CRBN in human HeLa cells assessed as induction of STAT3 degradation incubated for 24 hrs by TECAN SPARK microplate reader analysis relative to control; format: cell-based
# [3] = molecular target: T2, Protein cereblon/Signal transducer and activator of transcription 3 (Mus musculus) (UniProt P42227+Q8C7D2); assay: In-vivo PROTAC activity at STAT3/CRBN in female CB17 SCID mouse assessed as reduction STAT3 level spleen at 10 mg/kg, iv measured at 24 hrs by Western blot analysis; format: functional, organism-based; parameters: scale not given: the % may be the effect or the level left
# [4] = molecular target: T2, Protein cereblon/Signal transducer and activator of transcription 3 (Mus musculus); assay: In-vivo PROTAC activity at STAT3/CRBN in female CB17 SCID mouse assessed as reduction STAT3 level liver at 10 mg/kg, iv measured at 24 hrs by Western blot analysis; format: functional, organism-based; parameters: scale not given: the % may be the effect or the level left
# SU-DHL-1 = assay: Antiproliferative activity against human SU-DHL-1 cells assessed as cell growth inhibition incubated for 4 days by celltiter-glo assay; format: functional, cell-based; details: SU-DHL-1, 96 h
# [5] = Antiproliferative activity against human MOLM16 cells assessed as cell growth inhibition incubated for 4 days by celltiter-glo assay; format: functional, cell-based, MOLM-16; details: MOLM16, 96 h
# [6] = Antiproliferative activity against human SUPM2 cells assessed as cell growth inhibition incubated for 4 days by celltiter-glo assay; format: functional, cell-based; details: SUP-M2, 96 h
# [7] = molecular target: T1, Protein cereblon/Signal transducer and activator of transcription 3; assay: PROTAC activity at his-SUMO-tagged STAT3 (127 to 688 residues)/CRBN in human HeLa cells assessed as induction of STAT3 degradation upto 5 uM incubated for 24 hrs by TECAN SPARK microplate reader analysis; format: cell-based
# [8] = Binding affinity to STAT5 (unknown origin) by FP assay; parameters: species or system Homo sapiens
# [9] = molecular target: T2, Protein cereblon/Signal transducer and activator of transcription 3 (Mus musculus); assay: In-vivo PROTAC activity at STAT3/CRBN in female CB17 SCID mouse assessed as reduction STAT3 level liver at 10 mg/kg, iv measured at 72 hrs by Western blot analysis; format: functional, organism-based; parameters: scale not given: the % may be the effect or the level left
# [10] = molecular target: T2, Protein cereblon/Signal transducer and activator of transcription 3 (Mus musculus); assay: In-vivo PROTAC activity at STAT3/CRBN in female CB17 SCID mouse assessed as reduction STAT3 level spleen at 10 mg/kg, iv measured at 72 hrs by Western blot analysis; format: functional, organism-based; parameters: scale not given: the % may be the effect or the level left
# [11] = molecular target: T2, Protein cereblon/Signal transducer and activator of transcription 3 (Mus musculus); assay: In-vivo PROTAC activity at STAT3/CRBN in female CB17 SCID mouse assessed as reduction STAT3 level liver at 10 mg/kg, iv measured at 48 hrs by Western blot analysis; format: functional, organism-based; parameters: scale not given: the % may be the effect or the level left
# [12] = molecular target: T2, Protein cereblon/Signal transducer and activator of transcription 3 (Mus musculus); assay: In-vivo PROTAC activity at STAT3/CRBN in female CB17 SCID mouse assessed as reduction STAT3 level spleen at 10 mg/kg, iv measured at 48 hrs by Western blot analysis; format: functional, organism-based; parameters: scale not given: the % may be the effect or the level left
SMILES,DC50 [1],Emax [2],also measured
CN1CC[C@H]2CC[C@@H](C(=O)N[C@@H](CCC(N)=O)C(=O)N[C@H](CC(=O)N3CCC(C#Cc4cccc5c4CN(C4CCC(=O)NC4=O)C5)CC3)c3ccccc3)N2C(=O)[C@@H](NC(=O)c2cc3cc(C(F)(F)P(=O)(O)O)ccc3s2)C1 (some centres not stated),> 5000 nM,0%,–
CN1CC[C@H]2CC[C@@H](C(=O)N[C@@H](CCC(N)=O)C(=O)N[C@@H](C(=O)NCCCCCCCCC#Cc3cccc4c3CN(C3CCC(=O)NC3=O)C4=O)c3ccccc3)N2C(=O)[C@@H](NC(=O)c2cc3cc(C(F)(F)P(=O)(O)O)ccc3s2)C1 (some centres not stated),800 nM,60%,–
CN1CC[C@H]2CC[C@@H](C(=O)N[C@@H](CCC(N)=O)C(=O)N[C@H](C(=O)N3CCC(CCC#Cc4cccc5c4CN(C4CCC(=O)NC4=O)C5=O)CC3)c3ccccc3)N2C(=O)[C@@H](NC(=O)c2cc3cc(C(F)(F)P(=O)(O)O)ccc3s2)C1 (some centres not stated),300 nM,86%,–
CN1CC[C@H]2CC[C@@H](C(=O)N[C@@H](CCC(N)=O)C(=O)N[C@@H](Cc3ccc(F)cc3)C(=O)N3CCC(CCC#Cc4cccc5c4CN(C4CCC(=O)NC4=O)C5=O)CC3)N2C(=O)[C@@H](NC(=O)c2cc3cc(C(F)(F)P(=O)(O)O)ccc3s2)C1 (some centres not stated),90 nM,94%,Activity [3]: 50%; Activity [4]: 70%
CN1CC[C@H]2CC[C@@H](C(=O)N[C@@H](CCC(N)=O)C(=O)N[C@H](C(=O)N3CCN(CCC#Cc4cccc5c4CN(C4CCC(=O)NC4=O)C5=O)CC3)c3ccccc3)N2C(=O)[C@@H](NC(=O)c2cc3cc(C(F)(F)P(=O)(O)O)ccc3s2)C1 (some centres not stated),2500 nM,62%,–
CN1CC[C@H]2CC[C@@H](C(=O)N[C@@H](CCC(N)=O)C(=O)N[C@H](C(=O)NCCCCCC#Cc3cccc4c3CN(C3CCC(=O)NC3=O)C4=O)c3ccccc3)N2C(=O)[C@@H](NC(=O)c2cc3cc(C(F)(F)P(=O)(O)O)ccc3s2)C1 (some centres not stated),> 5000 nM,34%,–
NC(=O)CC[C@H](NC(=O)[C@@H]1CC[C@@H]2CCN(C(=O)CCCCCC#Cc3cccc4c3CN(C3CCC(=O)NC3=O)C4=O)C[C@H](NC(=O)c3cc4cc(C(=O)P(=O)(O)O)ccc4[nH]3)C(=O)N21)C(=O)NC(c1ccccc1)c1ccccc1 (some centres not stated),400 nM,88%,IC50 (SU-DHL-1): 300 nM; IC50 [5]: 22 nM; IC50 [6]: 470 nM
CN1CC[C@H]2CC[C@@H](C(=O)N[C@@H](CCC(N)=O)C(=O)N[C@@H](Cc3ccc(F)c(F)c3)C(=O)N3CCC(CCC#Cc4cccc5c4CN(C4CCC(=O)NC4=O)C5=O)CC3)N2C(=O)[C@@H](NC(=O)c2cc3cc(C(F)(F)P(=O)(O)O)ccc3s2)C1 (some centres not stated),220 nM,90%,Activity [3]: 50%; Activity [4]: 80%
NC(=O)CC[C@H](NC(=O)[C@@H]1CC[C@@H]2CCNC[C@H](NC(=O)c3cc4cc(C(F)(F)P(=O)(O)O)ccc4s3)C(=O)N21)C(=O)N[C@@H](Cc1ccc(F)c(F)c1)C(=O)N1CCC(CCC#Cc2cccc3c2CN(C2CCC(=O)NC2=O)C3=O)CC1 (some centres not stated),1200 nM,73%,Activity [3]: Active; Activity [4]: Active
CN1CC[C@H]2CC[C@@H](C(=O)N[C@@H](CCC(N)=O)C(=O)N[C@H](CCC(=O)N3CCC(C#Cc4cccc5c4CN(C4CCC(=O)NC4=O)C5)CC3)c3ccccc3)N2C(=O)[C@@H](NC(=O)c2cc3cc(C(F)(F)P(=O)(O)O)ccc3s2)C1 (some centres not stated),> 5000 nM,31%,–
CN1CC[C@H]2CC[C@@H](C(=O)N[C@@H](CCC(N)=O)C(=O)NC3(C(=O)N4CCC(CCC#Cc5cccc6c5CN(C5CCC(=O)NC5=O)C6=O)CC4)CCCCC3)N2C(=O)[C@@H](NC(=O)c2cc3cc(C(F)(F)P(=O)(O)O)ccc3s2)C1 (some centres not stated),> 5000 nM,0%,Activity [7]: inactive
CN1CC[C@H]2CC[C@@H](C(=O)N[C@@H](CCC(N)=O)C(=O)N[C@@H](Cc3ccccc3)C(=O)N3CCC(CCC#Cc4cccc5c4CN(C4CCC(=O)NC4=O)C5=O)CC3)N2C(=O)[C@@H](NC(=O)c2cc3cc(C(F)(F)P(=O)(O)O)ccc3s2)C1 (some centres not stated),130 nM,94%,Activity [3]: 50%; Activity [4]: 60%; IC50 [8]: > 10 nM
CN1CC[C@H]2CC[C@@H](C(=O)N[C@@H](CCC(N)=O)C(=O)N[C@H](C(=O)NCCCC#Cc3cccc4c3CN(C3CCC(=O)NC3=O)C4=O)c3ccccc3)N2C(=O)[C@@H](NC(=O)c2cc3cc(C(F)(F)P(=O)(O)O)ccc3s2)C1 (some centres not stated),> 5000 nM,16%,–
CC(C)N1CC[C@H]2CC[C@@H](C(=O)N[C@@H](CCC(N)=O)C(=O)N[C@@H](Cc3ccc(F)c(F)c3)C(=O)N3CCC(CCC#Cc4cccc5c4CN(C4CCC(=O)NC4=O)C5=O)CC3)N2C(=O)[C@@H](NC(=O)c2cc3cc(C(F)(F)P(=O)(O)O)ccc3s2)C1 (some centres not stated),500 nM,83%,Activity [9]: > 90%; IC50 (SU-DHL-1): 1780 nM; IC50 [5]: 93 nM; Activity [3]: > 90%; Activity [10]: > 90%; Activity [4]: > 90%; Activity [11]: > 90%; IC50 [6]: 1550 nM; Activity [12]: > 90%
CN1CC[C@H]2CC[C@@H](C(=O)N[C@@H](CCC(N)=O)C(=O)N[C@@H](C(=O)NCCCCCCC#Cc3cccc4c3CN(C3CCC(=O)NC3=O)C4=O)c3ccccc3)N2C(=O)[C@@H](NC(=O)c2cc3cc(C(F)(F)P(=O)(O)O)ccc3s2)C1 (some centres not stated),> 5000 nM,36%,–
CN1CC[C@H]2CC[C@@H](C(=O)N[C@@H](CCC(N)=O)C(=O)N[C@@H](C(=O)N3CCC(CCC#Cc4cccc5c4CN(C4CCC(=O)NC4=O)C5=O)CC3)C(C)(C)C)N2C(=O)[C@@H](NC(=O)c2cc3cc(C(F)(F)P(=O)(O)O)ccc3s2)C1 (some centres not stated),1010 nM,80%,–
CN1CC[C@H]2CC[C@@H](C(=O)N[C@@H](CCC(N)=O)C(=O)N[C@H](C(=O)N3CCC(CCC#Cc4cccc5c4CN(C4CCC(=O)NC4=O)C5=O)CC3)C3CCCCC3)N2C(=O)[C@@H](NC(=O)c2cc3cc(C(F)(F)P(=O)(O)O)ccc3s2)C1 (some centres not stated),260 nM,91%,–
CN1CC[C@H]2CC[C@@H](C(=O)N[C@@H](CCC(N)=O)C(=O)N[C@H](C(=O)NCCCCCCCC#Cc3cccc4c3CN(C3CCC(=O)NC3=O)C4=O)c3ccccc3)N2C(=O)[C@@H](NC(=O)c2cc3cc(C(F)(F)P(=O)(O)O)ccc3s2)C1 (some centres not stated),1500 nM,52%,–
CN1CC[C@H]2CC[C@@H](C(=O)N[C@@H](CCC(N)=O)C(=O)N[C@H](C(=O)NCCCCC#Cc3cccc4c3CN(C3CCC(=O)NC3=O)C4=O)c3ccccc3)N2C(=O)[C@@H](NC(=O)c2cc3cc(C(F)(F)P(=O)(O)O)ccc3s2)C1 (some centres not stated),> 5000 nM,42%,–
CCN1CC[C@H]2CC[C@@H](C(=O)N[C@@H](CCC(N)=O)C(=O)N[C@@H](Cc3ccc(F)c(F)c3)C(=O)N3CCC(CCC#Cc4cccc5c4CN(C4CCC(=O)NC4=O)C5=O)CC3)N2C(=O)[C@@H](NC(=O)c2cc3cc(C(F)(F)P(=O)(O)O)ccc3s2)C1 (some centres not stated),200 nM,92%,IC50 (SU-DHL-1): 540 nM; IC50 [5]: 31 nM; Activity [3]: 80%; Activity [4]: 80%; IC50 [6]: 540 nM
CN1CC[C@H]2CC[C@@H](C(=O)N[C@@H](CCC(N)=O)C(=O)N[C@](C)(C(=O)N3CCC(CCC#Cc4cccc5c4CN(C4CCC(=O)NC4=O)C5=O)CC3)c3ccccc3)N2C(=O)[C@@H](NC(=O)c2cc3cc(C(F)(F)P(=O)(O)O)ccc3s2)C1 (some centres not stated),> 5000 nM,2%,Activity [7]: inactive
CN1CC[C@H]2CC[C@@H](C(=O)N[C@@H](CCC(N)=O)C(=O)N[C@H](C(=O)NCCCCCCCCCC#Cc3cccc4c3CN(C3CCC(=O)NC3=O)C4)c3ccccc3)N2C(=O)[C@@H](NC(=O)c2cc3cc(C(F)(F)P(=O)(O)O)ccc3s2)C1 (some centres not stated),300 nM,66%,–

# Reference: ChEMBL document CHEMBL6092220 (J Med Chem, 2024)
